Measurements as given in patent US7511123B2, “Immuno-interactive fragments of the alpha-C subunit of inhibin” (Prince Henry's Institute of Medical Research, priority 1999, dated 2009).

Tests used:
R1 [1] = test: Solid phase binding of Set 2 peptides to R1; parameters: species or system mouse; key: +++; ΦΦΦ strong effect; +, Φ weak effect; conditions: Set 2 biotinylated peptides 24 micromoles/L
Experimental: (§1) The binding of the 41 biotinylated peptides as set forth in Table 7 (peptide set 2) to the mouse monoclonal antibodies (PO# series) was assessed as follows:
(§2) a) Assay 1 (solid phase assay). The assay was undertaken as outlined in assay 1 of Example 2. Biotinylated peptides (24 micromoles/L) were initially bound to streptavidin-coated plates. Mab (at an appropriate dilution to give a detectable response, 1:1000, 1:10000 dilution of the culture medium) was then added and incubated for 1.5 hr. The amount of bound Mab was determined using horseradish peroxidase-bound anti-mouse IgG serum and enzyme activity detected at 450-630 nm using an ELISA plate reader.

PO-6 = test: Solid phase binding of Set 2 peptides to PO-6; parameters: species or system mouse; key: +++; ΦΦΦ strong effect; +, Φ weak effect; conditions: Set 2 biotinylated peptides 24 micromoles/L
Experimental: as §1, §2

As #41 = test: Two-site assay design variation: biotinylated #41 pre-incubated with peptide; assay type: binding, sheep; conditions: non-biotinylated peptides 0.1-1.0 micromolar
Experimental: (iv) In a variation to the above design, biotinylated #41 was pre-incubated with peptide (0.1-1.0 micromolar) for 1.5 hours at room temperature and then added to the As #128 coated plate pre-bound with inhibin as for (i)-(iii). […] Combination of peptide #5 and #30 led to 74% decrease.

R1 [2] = test: RIA of Set 2 peptides with R1; assay type: binding, mouse; parameters: key: ΦΦΦ strong effect; +, Φ weak effect; a) limited binding; conditions: Set 2 biotinylated peptides 0.8 and 0.08 micromoles/L
Experimental: The binding of the 41 biotinylated peptides as set forth in Table 7 (peptide set 2) to the mouse monoclonal antibodies (PO# series) was assessed as follows: b) Assay 2 (radioimrnunoassay, RIA) using iodinated human inhibin A as tracer. Mabs (at an appropriate dilution, see above) were incubated with iodinated human recombinant inhibin in the presence of biotinylated peptides (0.8 and 0.08 micromoles/L final concentration) overnight at room temperature.

PO-22 = test: Solid phase binding of Set 2 peptides to PO-22; parameters: species or system mouse; key: +++; ΦΦΦ strong effect; +, Φ weak effect; conditions: Set 2 biotinylated peptides 24 micromoles/L
Experimental: as §1, §2

With SGSG WSPSALRLLQRPPE [Peptide 5] the “R1 SPB” value (R1 [1]) was “+”, the “PO-6 SPB” value (PO-6) was “+++” and the “inhibition with biotinylated #41 pre-incubated with peptide” value (As #41) was 50%. The “R1 RIA” value (R1 [2]) was “ΦΦΦ” and the “PO-22 SPB” value (PO-22) was “+++”.
